No end group written: not given here.
Tested on: T cells specific for the TERT572 peptide
Experiment: Immunomonitoring: IFNg ELISpot assay on PBMC of vaccinated patients
Assay type: in vivo, human

Which results are given for “Vx-001: vaccine composed of two nine-amino-acid peptides, TERT572 (SEQ ID No: 1) and TERT572Y (SEQ ID No: 2), administered separately with adjuvant Montanide ISA51 VG (chain 1 RLFFYRKSV; chain 2 YLFFYRKSV; not fully specified)”?
Patients who mounted a TERT572 specific immune response (Vx-001 treated patients measured at least at W6, W18 or thereafter (22 of 75 patients)): 29.3%; Frequency of vaccine-induced immune response (Vx-001 treated patients with natural immunity): 15%; Patients who mounted a TERT572 specific immune response (Vx-001 treated patients with non-squamous (NSQ) NSCLC): 36%; Patients who mounted a TERT572 specific immune response (Vx-001 treated patients with squamous (SQ) NSCLC): 13.3%; Frequency of vaccine-induced immune response (Vx-001 treated patients without natural immunity): 36.2%

Source: patent US20200079819A1, “Use of a Vaccine Targeting a Cryptic Tert Epitope, for Treating Lung Cancer in a HLA-A*0201-Positive Never-Smoker or Light-Former Smoker Patient” (Vaxon Biotech, priority 2017, published 2020)
